According to patent US12466849B2, “Anti-viral and anti-tumoral compounds” (YEDA RESEARCH AND DEVELOPMENT CO. LTD, priority 2020, dated 2025):
Values after ≈ are worked out from the molar mass of the structure shown. Like-named read-outs stand apart in the source and are kept apart here.

Key:
[1] = system: enterovirus-68 (EV-68, US/DY/14-18953); test: organism not typed; details: RD
poliovirus-1 (POV-1) [2] = test: organism not typed
poliovirus-1 (POV-1) [3] = details: for SI: POV-1, SI = CC50/EC50
[4] = system: enterovirus-68 (EV-68, US/DY/14-18953); details: EV-68; SI = CC50/EC50
in vitro [5] = details: human
SARS-CoV-2 [6] = details: SARS-CoV-2; SI = CC50/EC50
RSV [7] = test: microbe, parasite or virus in culture; details: human respiratory syncytial virus, MA104
Yellow fever virus (YFV) [8] = test: microbe, parasite or virus in culture; details: Huh-7
dengue virus-2 (DV-2) [9] = details: DV-2; SI = CC50/EC50
adenovirus-5 (Ad5) [10] = details: Ad5; SI = CC50/EC50
in vitro [11] = details: dog
[12] = rat, 1 µM
West Nile virus (WNV) [13] = details: WNV; SI = CC50/EC50
RSV [14] = details: RSV; SI = CC50/EC50
TCRV [15] = test: microbe, parasite or virus in culture; details: Mammarenavirus tacaribeense, Vero C1008
in vitro [16] = details: African green monkey
in vitro [17] = details: dog; remark: listed apart in the source
influenza A(H1N1) [18] = system: influenza A(H1N1)
in vitro [19] = details: dog; remark: listed apart in the source
Powassan virus (POWV) [20] = details: POWV; SI = CC50/EC50
in vitro [21] = details: African green monkey; remark: listed apart in the source
Influenza B [22] = system: Influenza B
West Nile virus (WNV) [23] = test: microbe, parasite or virus in culture; details: Vero 76
adenovirus-5 (Ad5) [24] = test: organism not typed; details: A549
in vitro [25] = details: African green monkey; remark: listed apart in the source
Powassan virus (POWV) [26] = test: microbe, parasite or virus in culture; details: BHK-21
influenza A(H5N1) [27] = test: microbe, parasite or virus in culture; details: H5N1, MDCK
SARS-CoV-2 [28] = test: microbe, parasite or virus in culture; details: Severe acute respiratory syndrome coronavirus 2, Vero 76
in vitro [29] = details: African green monkey; remark: listed apart in the source
dengue virus-2 (DV-2) [30] = test: microbe, parasite or virus in culture; details: Huh-7
SARS-CoV [31] = test: microbe, parasite or virus in culture; details: Severe acute respiratory syndrome coronavirus, Vero 76
in vitro [32] = details: African green monkey; remark: listed apart in the source
HCMV AD169 = test: HCMV plaque reduction assay, MRC-5 cells, strain AD169; assay type: cell-based, Human cytomegalovirus; details: Human betaherpesvirus 5, 144 h; hCMV AD169, MRC5 cells, plaque assay, 6-days duration
in vitro [33] = details: African green monkey; remark: listed apart in the source
in vitro [34] = details: Syrian hamster
in vitro [35] = details: African green monkey; remark: listed apart in the source
[36] = system: Japanese encephalitis virus (JEV); test: microbe, parasite or virus in culture; details: Vero 76
Zika virus [37] = details: Zika; SI = CC50/EC50
Yellow fever virus (YFV) [38] = details: YFV; SI = CC50/EC50
[39] = system: Venezuelan equine encephalitis virus (VEEV); details: VEEV; SI = CC50/EC50
[40] = system: Venezuelan equine encephalitis virus (VEEV); test: microbe, parasite or virus in culture; details: Vero 76
[41] = system: Rift Valley fever virus (RVFV); test: microbe, parasite or virus in culture; details: Vero 76
Zika virus [42] = test: microbe, parasite or virus in culture; details: Vero 76
[43] = MRC-5 cytotoxicity assay (MTS) and visual cytotoxicity; details: human
TCRV [44] = details: TCRV; SI = CC50/EC50
influenza A(H5N1) [45] = system: influenza A(H5N1)
enterovirus-68 (EV-68) [46] = test: organism not typed; details: RD
in vitro [47] = details: African green monkey; remark: listed apart in the source
in vitro [48] = details: African green monkey; remark: listed apart in the source
enterovirus-68 (EV-68) [49] = details: EV-68; SI = CC50/EC50
Influenza B [50] = test: microbe, parasite or virus in culture; details: MDCK
[51] = human
[52] = system: Japanese encephalitis virus (JEV); details: JEV; SI = CC50/EC50
influenza A(H1N1) [53] = test: microbe, parasite or virus in culture; details: H1N1, MDCK
SARS-CoV [54] = details: SARS-CoV; SI = CC50/EC50
[55] = system: Rift Valley fever virus (RVFV); details: RVFV; SI = CC50/EC50

CC(C)S(=O)(=O)n1c(N)nc2ccc(/C(=N/O)c3ccccc3)cc21 [Enviroxime]
EC50 [1]: 0.12 µg/mL (≈ 0.335 µM) | EC50 (poliovirus-1 (POV-1) [2]; Vero 76, read-out: EQ50): 0.0095 µg/mL | SI (poliovirus-1 (POV-1) [3]): 350 | CC50 (poliovirus-1 (POV-1) [3]; Vero 76 cells without virus, positive control): 3.3 µg/mL (≈ 9.21 µM) | SI50 (SI) [4]: 46 | CC50 (in vitro [5]): 5.5 µg/mL (≈ 15.3 µM)

Nc1nc2c(ncn2[C@@H]2OC(CO)=CC2O)c(=O)[nH]1 (some centres unmarked) [AB21651]
SI (SARS-CoV-2 [6]): 0 | EC50 (RSV [7]): > 2000 µM | EC50 (Yellow fever virus (YFV) [8]): > 2000 µM | SI (dengue virus-2 (DV-2) [9]): 0 | SI (adenovirus-5 (Ad5) [10]): 0 | CC50 (in vitro [11]): > 2000 µM | Peak area ratio, metabolite formed (AB21649 from AB23039, AB21651 from AB23040) ([12]; 15 min): 6.93E−04 | Peak area ratio, metabolite formed (AB21649 from AB23039, AB21651 from AB23040) ([12]; 60 min): 7.68E−04 | SI (West Nile virus (WNV) [13]): 0 | SI (RSV [14]): 0 | EC50 (TCRV [15]): > 2000 µM | EC50 (poliovirus-1 (POV-1) [2]; Vero 76): > 2000 µM | CC50 (in vitro [16]): > 2000 µM | CC50 (in vitro [17]): > 2000 µM | antiviral activity against Influenza (H1N1) (in words) (influenza A(H1N1) [18]): exhibits antiviral activity | SI (influenza A(H1N1) [18]; H1N1): >4.5 | CC50 (in vitro [19]): > 2000 µM | SI (Powassan virus (POWV) [20]): 0 | CC50 (in vitro [21]): > 2000 µM | SI (Influenza B [22]): 0 | EC50 (West Nile virus (WNV) [23]): > 2000 µM | EC50 (adenovirus-5 (Ad5) [24]): > 2000 µM | CC50 (in vitro [25]): > 2000 µM | EC50 (Powassan virus (POWV) [26]): > 2000 µM | EC50 (influenza A(H5N1) [27]): 1300 µM | EC50 (SARS-CoV-2 [28]): > 2000 µM | CC50 (in vitro [29]): > 2000 µM | EC50 (dengue virus-2 (DV-2) [30]): > 2000 µM | EC50 (SARS-CoV [31]): > 2000 µM | CC50 (in vitro [32]): > 2000 µM | EC50 (HCMV AD169): > 100 µM | SI (poliovirus-1 (POV-1) [3]): 0 | CC50 (in vitro [33]): > 2000 µM | CC50 (in vitro [34]): > 2000 µM | CC50 (in vitro [35]): > 2000 µM | EC50 [36]: > 2000 µM | SI (Zika virus [37]): 0 | SI (Yellow fever virus (YFV) [38]): 0 | SI [39]: 0 | EC50 [40]: > 2000 µM | EC50 [41]: > 2000 µM | EC50 (Zika virus [42]): > 2000 µM | CC50 at 6 days [43]: > 100 µM | SI (TCRV [44]): 0 | antiviral activity against Influenza (H5N1) (in words) (influenza A(H5N1) [45]; Table 11): exhibits antiviral activity | SI (influenza A(H5N1) [45]; influenza A(H5N1), SI = CC50/EC50): >1.5 | EC50 (enterovirus-68 (EV-68) [46]): > 1100 µM | CC50 (in vitro [47]): > 2000 µM | CC50 (in vitro [48]): > 2000 µM | SI (enterovirus-68 (EV-68) [49]): 0 | EC50 (Influenza B [50]): > 2000 µM | Peak area ratio, metabolite formed (AB21649 from AB23039, AB21651 from AB23040) ([51]; 0 min, 1 µM): 6.17E−04 | Peak area ratio, metabolite formed (AB21649 from AB23039, AB21651 from AB23040) ([51]; 0 min, 1 μM): 7.04E−04 | Peak area ratio, metabolite formed (AB21649 from AB23039, AB21651 from AB23040) ([51]; 15 min, 1 μM): 1.03E−03 | Peak area ratio, metabolite formed (AB21649 from AB23039, AB21651 from AB23040) ([51]; 60 min, 1 μM): 1.50E−03 | SI [52]: 0 | EC50 (influenza A(H1N1) [53]): 440 µM | SI (SARS-CoV [54]): 0 | SI [55]: 0
